In patent US20240189380A1, “COMPOSITIONS FOR INHIBITING EHP INFECTION IN SHRIMP AND RELATED METHODS” (priority 2022, published 2024):

Test system: EHP spores
Test: In vitro inactivation of polar tube extrusion of EHP spores
Format: cell-based, Enterocytozoon hepatopenaei
Conditions: for polar tube extrusion of EHP spores compared to DMSO control: p>0.05; for polar tube extrusion rate: Batch 1 spores (high saline culture), 2 hours at 37° C.; for % of extrusion post-incubation: Batch 2 spores (low saline culture)
Protocol: The mechanism of EHP infection involves extrusion of polar tube (adhesive mechanism). In an in vitro study, inactivation of polar tube extrusion of EHP spores were tested with selected active ingredients namely thymoquinone, cinnamic aldehyde, eugenol, and carvacrol. The stock solution of bioactive molecules was prepared in dimethyl sulfoxide (DMSO) and further working solution prepared with 1× sterile phosphate buffer saline (1×PBS).
EHP spores were isolated and purified from HP of infected shrimps from high saline shrimp culture system (Batch 1) and low saline shrimp culture system (Batch 2). Purified spores were then incubated with the test molecules at a desired concentration for 2 hours at 37° C. Washed spores were then induced for polar tube extrusion with alkaline agent. The extrusion of the spore polar tubes was determined under a light microscope at 100× magnification by counting the number of extruded spores from a total of 100 spores and converting the number into % of extrusion.
Statistical analysis. The One-way analysis of variance (ANOVA) and t-Test were performed to determine the significant differences at a 95% confidence interval of % polar tube extrusion between spores treated with bioactive molecules and the corresponding DMSO control. The analyses were carried out using STATGRAPHICS centurion.

| SMILES | polar tube extrusion of EHP spores compared to DMSO control (100 ppm) | polar tube extrusion rate (10 ppm) [%] | polar tube extrusion rate (100 ppm) [%] | % of extrusion post-incubation (10 ppm, 2% DMSO control 86.47%) [%] | % of extrusion post-incubation (100 ppm, 20% DMSO control 88.32%) [%] |
| --- | --- | --- | --- | --- | --- |
| Cc1ccc(C(C)C)cc1O [Carvacrol] | slight reduction |  |  |  |  |
| O=C/C=C/c1ccccc1 [Cinnamic aldehyde] | slight reduction |  |  |  |  |
| C=CCc1ccc(O)c(OC)c1 [Eugenol] | slight reduction |  |  |  |  |
| CC1=CC(=O)C(C(C)C)=CC1=O [Thymoquinone] |  | 43.92 | 6.34 | 40.31 | 0.31 |
